Legend:
5-HT1D = 5-HT1D (Homo sapiens, UniProt P28221); assay: Off-target primary and secondary screen; assay type: binding; conditions: 10 mM sample
5-HT2A = 5-HT2A (Homo sapiens, UniProt P28223); assay: Off-target primary and secondary screen; assay type: binding
DAT = DAT (Homo sapiens, UniProt Q01959); assay: Off-target primary and secondary screen; assay type: binding; conditions: 10 mM sample
[1] = system: multiple myeloma-derived L363 cells; assay: Colorimetric MTS cell viability assay; assay type: cell-based; conditions: Homo sapiens, L-363, N.S. = Not significant, read-out: Cell efficacy (GI50) Mean ± SD
Excerpt: • *Data from Park, J. E., et al {Park, 2023 #3387}. **Data from Alverez C. N., et al {Alverez, 2020 #3186}. N. S., Not significant; N. D., Not determined. ^a IC50 values determined from at least three independent experiments except as noted in parentheses. b A colorimetric MTS cell viability assay carried out using multiple myeloma-derived L363 cells.

5-HT7A = 5-HT7A (Homo sapiens, UniProt P34969); assay: Off-target primary and secondary screen; assay type: binding; conditions: 10 mM sample
5-HT1B = 5-HT1B (Homo sapiens, UniProt P28222); assay: Off-target primary and secondary screen; assay type: binding; conditions: 10 mM sample
[2] = Conversion of Allopole to Allopole-A under various buffer conditions (mass spectroscopy); assay type: physicochemical; conditions: RT, 1 h; for Compound detected / Compound detected, % of total / Compound detected, pk area: 100 uM Allopole incubated
Method: This Example illustrates the conversion of Allopole to Allopole-A under various buffer conditions, RT, 1 h (JE), as set forth in Table 4
Samples were prepared by incubating Allopole in the indicated buffer conditions without or with 5 mM GSH for 1 h, at RT.

5-HT3 = 5-HT3 (Homo sapiens, UniProt P46098); assay: Off-target primary and secondary screen; assay type: binding; conditions: 10 mM sample
Sigma 2 = Sigma 2 (Homo sapiens, UniProt Q5BJF2); assay: Off-target primary and secondary screen; assay type: binding; conditions: 10 mM sample
Aipha1D = Aipha1D (Homo sapiens, UniProt P25100); assay: Off-target primary and secondary screen; assay type: binding; conditions: 10 mM sample
Sequence of Aipha1D (P25100 whole entry): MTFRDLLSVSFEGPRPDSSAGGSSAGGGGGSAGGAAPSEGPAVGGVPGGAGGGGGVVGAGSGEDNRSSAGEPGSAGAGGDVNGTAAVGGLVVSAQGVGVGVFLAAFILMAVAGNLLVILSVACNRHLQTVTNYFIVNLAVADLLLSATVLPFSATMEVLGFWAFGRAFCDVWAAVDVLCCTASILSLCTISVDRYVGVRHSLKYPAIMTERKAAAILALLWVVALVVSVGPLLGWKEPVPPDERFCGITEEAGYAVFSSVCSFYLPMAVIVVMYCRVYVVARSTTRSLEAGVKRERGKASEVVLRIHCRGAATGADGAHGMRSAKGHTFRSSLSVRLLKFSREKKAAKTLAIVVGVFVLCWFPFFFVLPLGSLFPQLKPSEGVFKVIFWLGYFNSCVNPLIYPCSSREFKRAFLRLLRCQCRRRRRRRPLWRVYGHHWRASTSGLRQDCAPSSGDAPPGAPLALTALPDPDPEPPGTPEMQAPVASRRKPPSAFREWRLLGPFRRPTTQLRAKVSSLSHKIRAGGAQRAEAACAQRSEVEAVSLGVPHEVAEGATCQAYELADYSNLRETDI

D5 = D5 (Homo sapiens, UniProt P21918); assay: Off-target primary and secondary screen; assay type: binding; conditions: 10 mM sample
Sequence of D5 (P21918 whole entry): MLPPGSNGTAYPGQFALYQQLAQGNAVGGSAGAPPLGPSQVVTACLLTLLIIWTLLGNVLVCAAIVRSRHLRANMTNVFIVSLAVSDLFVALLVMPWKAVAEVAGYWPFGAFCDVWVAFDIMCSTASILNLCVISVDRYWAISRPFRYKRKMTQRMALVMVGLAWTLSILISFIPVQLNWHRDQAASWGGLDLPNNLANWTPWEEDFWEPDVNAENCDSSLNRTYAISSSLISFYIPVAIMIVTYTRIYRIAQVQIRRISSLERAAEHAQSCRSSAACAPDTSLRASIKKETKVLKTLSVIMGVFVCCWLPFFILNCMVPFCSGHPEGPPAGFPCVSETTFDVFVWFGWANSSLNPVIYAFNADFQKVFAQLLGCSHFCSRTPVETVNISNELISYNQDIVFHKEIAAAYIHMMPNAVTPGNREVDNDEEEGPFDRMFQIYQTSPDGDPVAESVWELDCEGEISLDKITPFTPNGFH

Alpha2C = Alpha2C (Homo sapiens, UniProt P18825); assay: Off-target primary and secondary screen; assay type: binding; conditions: 10 mM sample
M3 = M3 (Homo sapiens, UniProt P20309); assay: Off-target primary and secondary screen; assay type: binding; conditions: 10 mM sample
Sequence of M3 (P20309 whole entry): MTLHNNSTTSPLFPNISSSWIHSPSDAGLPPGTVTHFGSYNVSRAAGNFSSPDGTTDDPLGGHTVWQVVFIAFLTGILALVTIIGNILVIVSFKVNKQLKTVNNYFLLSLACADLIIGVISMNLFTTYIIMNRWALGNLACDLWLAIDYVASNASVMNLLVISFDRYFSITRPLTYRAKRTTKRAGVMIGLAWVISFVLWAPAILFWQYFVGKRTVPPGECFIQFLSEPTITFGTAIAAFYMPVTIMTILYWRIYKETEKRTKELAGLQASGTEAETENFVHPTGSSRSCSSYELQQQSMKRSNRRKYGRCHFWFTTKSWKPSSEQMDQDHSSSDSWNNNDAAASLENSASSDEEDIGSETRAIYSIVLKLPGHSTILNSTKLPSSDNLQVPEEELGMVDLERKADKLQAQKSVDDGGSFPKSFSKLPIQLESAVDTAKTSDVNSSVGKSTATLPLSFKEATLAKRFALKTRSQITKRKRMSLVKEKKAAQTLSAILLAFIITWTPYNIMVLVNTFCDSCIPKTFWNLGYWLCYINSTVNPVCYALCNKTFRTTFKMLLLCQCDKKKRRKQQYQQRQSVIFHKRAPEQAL

D1 = D1 (Homo sapiens, UniProt P21728); assay: Off-target primary and secondary screen; assay type: binding; conditions: 10 mM sample
Sequence of D1 (P21728 whole entry): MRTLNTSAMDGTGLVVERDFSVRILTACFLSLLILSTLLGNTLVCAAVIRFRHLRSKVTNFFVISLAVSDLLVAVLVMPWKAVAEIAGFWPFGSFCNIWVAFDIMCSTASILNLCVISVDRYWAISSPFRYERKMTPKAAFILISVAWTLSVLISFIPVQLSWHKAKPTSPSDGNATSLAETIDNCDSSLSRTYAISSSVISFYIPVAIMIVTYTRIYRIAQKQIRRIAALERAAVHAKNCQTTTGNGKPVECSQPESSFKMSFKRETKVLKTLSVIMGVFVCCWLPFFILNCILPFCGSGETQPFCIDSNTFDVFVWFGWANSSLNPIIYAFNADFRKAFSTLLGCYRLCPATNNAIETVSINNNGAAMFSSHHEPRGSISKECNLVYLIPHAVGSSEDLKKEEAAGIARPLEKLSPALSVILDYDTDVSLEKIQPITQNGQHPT

5-HT1A = 5-HT1A (Homo sapiens, UniProt P08908); assay: Off-target primary and secondary screen; assay type: binding; conditions: 10 mM sample
Sequence of 5-HT1A (P08908 whole entry, species assumed): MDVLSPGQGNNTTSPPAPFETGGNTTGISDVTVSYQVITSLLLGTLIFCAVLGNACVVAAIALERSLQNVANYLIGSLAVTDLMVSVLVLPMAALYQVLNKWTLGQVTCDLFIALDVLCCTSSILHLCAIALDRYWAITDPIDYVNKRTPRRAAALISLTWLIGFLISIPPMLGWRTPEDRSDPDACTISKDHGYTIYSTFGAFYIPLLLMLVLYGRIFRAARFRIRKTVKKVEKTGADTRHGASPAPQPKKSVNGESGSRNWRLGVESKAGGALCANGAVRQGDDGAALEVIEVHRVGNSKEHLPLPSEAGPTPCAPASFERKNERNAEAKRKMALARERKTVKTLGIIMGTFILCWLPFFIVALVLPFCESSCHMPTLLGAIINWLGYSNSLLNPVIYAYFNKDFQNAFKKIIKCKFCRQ

D3 = D3 (Homo sapiens, UniProt P35462); assay: Off-target primary and secondary screen; assay type: binding; conditions: 10 mM sample
5-HT2B = 5-HT2B (Homo sapiens, UniProt P41595); assay: Off-target primary and secondary screen; assay type: binding; conditions: 10 mM sample
Sequence of 5-HT2B (P41595 whole entry, species assumed): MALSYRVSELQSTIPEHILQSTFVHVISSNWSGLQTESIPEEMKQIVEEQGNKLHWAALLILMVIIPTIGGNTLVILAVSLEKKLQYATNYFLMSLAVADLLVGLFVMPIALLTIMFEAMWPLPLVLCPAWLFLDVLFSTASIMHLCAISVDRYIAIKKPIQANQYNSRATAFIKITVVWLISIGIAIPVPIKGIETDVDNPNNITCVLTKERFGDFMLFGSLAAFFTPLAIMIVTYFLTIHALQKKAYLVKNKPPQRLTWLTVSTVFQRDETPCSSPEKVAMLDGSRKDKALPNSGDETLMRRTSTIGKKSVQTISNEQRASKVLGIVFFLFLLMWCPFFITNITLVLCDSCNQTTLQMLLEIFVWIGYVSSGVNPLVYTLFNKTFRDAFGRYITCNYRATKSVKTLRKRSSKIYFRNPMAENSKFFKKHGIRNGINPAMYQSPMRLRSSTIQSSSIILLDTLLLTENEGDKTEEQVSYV

Alpha2B = Alpha2B (Homo sapiens, UniProt P18089); assay: Off-target primary and secondary screen; assay type: binding; conditions: 10 mM sample
PBR = PBR (Homo sapiens, UniProt P30536); assay: Off-target primary and secondary screen; assay type: binding
Sequence of PBR (P30536 whole entry, species assumed): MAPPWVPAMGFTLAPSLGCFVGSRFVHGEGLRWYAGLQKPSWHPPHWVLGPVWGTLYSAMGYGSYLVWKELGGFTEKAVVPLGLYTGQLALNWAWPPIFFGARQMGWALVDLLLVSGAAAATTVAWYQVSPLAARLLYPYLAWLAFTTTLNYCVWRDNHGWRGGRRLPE

M2 = M2 (Homo sapiens, UniProt P08172); assay: Off-target primary and secondary screen; assay type: binding; conditions: 10 mM sample
H1 = H1 (Homo sapiens, UniProt P35367); assay: Off-target primary and secondary screen; assay type: binding; conditions: 10 mM sample
NET = NET (Homo sapiens, UniProt P23975); assay: Off-target primary and secondary screen; assay type: binding; conditions: 10 mM sample
D2 = D2 (Homo sapiens, UniProt P14416); assay: Off-target primary and secondary screen; assay type: binding; conditions: 10 mM sample
Sequence of D2 (P14416 whole entry): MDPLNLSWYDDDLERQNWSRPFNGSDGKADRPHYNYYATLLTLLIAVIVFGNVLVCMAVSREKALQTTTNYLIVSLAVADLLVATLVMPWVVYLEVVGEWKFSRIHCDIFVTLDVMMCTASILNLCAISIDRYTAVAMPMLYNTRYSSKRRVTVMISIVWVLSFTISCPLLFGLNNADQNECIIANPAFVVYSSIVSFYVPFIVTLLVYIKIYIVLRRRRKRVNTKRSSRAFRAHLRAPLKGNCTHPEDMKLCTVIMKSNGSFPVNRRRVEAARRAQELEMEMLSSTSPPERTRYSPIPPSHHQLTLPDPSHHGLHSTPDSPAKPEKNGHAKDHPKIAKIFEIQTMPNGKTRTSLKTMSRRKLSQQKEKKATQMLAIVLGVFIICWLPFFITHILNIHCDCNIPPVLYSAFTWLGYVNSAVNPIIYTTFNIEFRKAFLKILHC

5-HT1E = 5-HT1E (Homo sapiens, UniProt P28566); assay: Off-target primary and secondary screen; assay type: binding; conditions: 10 mM sample
H2 = H2 (Homo sapiens, UniProt P25021); assay: Off-target primary and secondary screen; assay type: binding; conditions: 10 mM sample
5-HT6 = 5-HT6 (Homo sapiens, UniProt P50406); assay: Off-target primary and secondary screen; assay type: binding; conditions: 10 mM sample
Sequence of 5-HT6 (P50406 whole entry, species assumed): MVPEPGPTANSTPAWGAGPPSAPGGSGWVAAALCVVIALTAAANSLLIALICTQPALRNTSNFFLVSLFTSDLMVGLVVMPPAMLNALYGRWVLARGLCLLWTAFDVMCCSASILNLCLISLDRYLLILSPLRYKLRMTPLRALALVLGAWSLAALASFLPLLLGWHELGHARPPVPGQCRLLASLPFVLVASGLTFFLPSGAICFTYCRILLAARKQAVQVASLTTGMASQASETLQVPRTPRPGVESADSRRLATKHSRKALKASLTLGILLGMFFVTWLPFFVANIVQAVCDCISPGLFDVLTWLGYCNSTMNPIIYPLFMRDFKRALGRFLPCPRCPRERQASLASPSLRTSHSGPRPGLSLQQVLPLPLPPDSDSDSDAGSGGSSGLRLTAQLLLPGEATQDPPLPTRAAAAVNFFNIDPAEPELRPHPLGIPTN

D4 = D4 (Homo sapiens, UniProt P21917); assay: Off-target primary and secondary screen; assay type: binding; conditions: 10 mM sample
SERT = SERT (Homo sapiens, UniProt P31645); assay: Off-target primary and secondary screen; assay type: binding; conditions: 10 mM sample
MOR = MOR (Homo sapiens, UniProt P35372); assay: Off-target primary and secondary screen; assay type: binding; conditions: 10 mM sample
Sigma 1 = Sigma 1 (Homo sapiens, UniProt Q99720); assay: Off-target primary and secondary screen; assay type: binding; conditions: 10 mM sample
H4 = H4 (Homo sapiens, UniProt Q9H3N8); assay: Off-target primary and secondary screen; assay type: binding; conditions: 10 mM sample
Alpha1A = Alpha1A (Homo sapiens, UniProt P35348); assay: Off-target primary and secondary screen; assay type: binding; conditions: 10 mM sample
Beta2 = Beta2 (Homo sapiens, UniProt P07550); assay: Off-target primary and secondary screen; assay type: binding; conditions: 10 mM sample
BZP Rat brain site = assay: Off-target primary and secondary screen; assay type: binding
[3] = buffer 2 (1x PBS pH = 7.4), no GSH
[4] = buffer 3 (20 mM HEPES pH = 7.0), no GSH

Sequence of 5-HT2A (P28223 whole entry, species assumed): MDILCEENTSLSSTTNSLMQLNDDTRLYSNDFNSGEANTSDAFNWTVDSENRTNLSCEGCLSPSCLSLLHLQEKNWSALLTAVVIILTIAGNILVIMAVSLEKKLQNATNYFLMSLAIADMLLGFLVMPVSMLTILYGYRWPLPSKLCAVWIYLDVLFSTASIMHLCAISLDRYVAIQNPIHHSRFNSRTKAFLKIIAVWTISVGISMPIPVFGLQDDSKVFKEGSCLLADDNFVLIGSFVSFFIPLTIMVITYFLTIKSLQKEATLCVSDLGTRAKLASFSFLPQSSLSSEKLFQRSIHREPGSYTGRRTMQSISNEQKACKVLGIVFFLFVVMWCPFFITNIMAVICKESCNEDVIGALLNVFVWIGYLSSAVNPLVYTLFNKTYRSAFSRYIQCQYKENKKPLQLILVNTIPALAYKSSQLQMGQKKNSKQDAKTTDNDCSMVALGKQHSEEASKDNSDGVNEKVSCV
Sequence of 5-HT1D (P28221 whole entry, species assumed): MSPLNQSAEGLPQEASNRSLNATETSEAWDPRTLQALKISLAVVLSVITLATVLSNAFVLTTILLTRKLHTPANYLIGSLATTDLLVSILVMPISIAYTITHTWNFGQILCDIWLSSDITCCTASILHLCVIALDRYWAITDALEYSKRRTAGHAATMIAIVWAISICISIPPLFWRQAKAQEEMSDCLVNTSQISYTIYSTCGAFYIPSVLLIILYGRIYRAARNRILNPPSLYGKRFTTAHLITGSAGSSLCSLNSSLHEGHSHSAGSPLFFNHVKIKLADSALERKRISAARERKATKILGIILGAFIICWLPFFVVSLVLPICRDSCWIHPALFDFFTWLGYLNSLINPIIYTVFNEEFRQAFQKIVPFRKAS

Q: For `Cn1cnc([N+](=O)[O-])c1Sc1nnc2n(CC3CC3)c(=O)c3sc(Cl)cc3n12` [Compound 20, 7-Chloro-4-(cyclopropylmethyl)-1-((1-methyl-4-nitro-1H-imidazol-5-yl)thio) thieno[2,3-e][1,2,4]triazolo[4,3-a]pyrimidin-5 (4H)-one], which “Primary screen AVE (% inhib) ± SD” value (5-HT1D) is on record?
A: 32.8 ± 27.1 % inhib

Q: And the Ki (5-HT2A)?
A: 9.2 µM

Q: And the “Primary screen AVE (% inhib) ± SD” value (5-HT2A; 10 mM sample)?
A: 52.4 ± 11.8 % inhib

Q: And the “Primary screen AVE (% inhib) ± SD” value (DAT)?
A: 54.0 ± 10.7 % inhib

Q: And the GI50 [1]?
A: 4.09 ± 0.14 µM

Q: What about the “Primary screen AVE (% inhib) ± SD” value (5-HT7A) of the same compound?
A: 14.9 ± 9.9 % inhib

Q: What about the “Primary screen AVE (% inhib) ± SD” value (5-HT1B) of the same compound?
A: 60.8 ± 40.9 % inhib

Q: And the “Compound detected” value ([2]; buffer 1 + 5 mM GSH)?
A: 0.1 µmol/L

Q: What about the “Compound detected, % of total” value ([2]; buffer 1 + 5 mM GSH) of the same compound?
A: 0.1 % of total

Q: What about the “Compound detected, pk area” value ([2]; buffer 1 + 5 mM GSH) of the same compound?
A: 8.76E+08

Q: What about the “Compound detected” value [2, 3] of the same compound?
A: 97.6 µmol/L

Q: And the “Compound detected, % of total” value [2, 3]?
A: 97.6 % of total

Q: What about the “Compound detected, pk area” value [2, 3] of the same compound?
A: 6.28E+08

Q: What about the “Compound detected” value ([2]; buffer 2 + 5 mM GSH) of the same compound?
A: 0.0 µmol/L

Q: And the “Compound detected, % of total” value ([2]; buffer 2 + 5 mM GSH)?
A: 0.0 % of total

Q: What about the “Compound detected, pk area” value ([2]; buffer 2 + 5 mM GSH) of the same compound?
A: 2.41E+03

Q: And the “Compound detected” value [2, 4]?
A: 93.1 µmol/L

Q: And the “Compound detected, % of total” value [2, 4]?
A: 93.1 % of total

Q: What about the “Compound detected” value ([2]; buffer 3 + 5 mM GSN) of the same compound?
A: 0.0 µmol/L

Q: What about the “Compound detected, % of total” value ([2]; buffer 3 + 5 mM GSN) of the same compound?
A: 0.0 % of total

Q: And the Compound detected, pk area ([2]; buffer 3 + 5 mM GSN)?
A: 93500

Q: What about the “Compound detected” value ([2]; buffer 3 [sic], no GSH) of the same compound?
A: 97.9 µmol/L

Q: What about the “Compound detected, % of total” value ([2]; buffer 3 [sic], no GSH) of the same compound?
A: 97.9 % of total

Q: What about the “Compound detected, pk area” value ([2]; buffer 3 [sic], no GSH) of the same compound?
A: 7.45E+08

Q: What about the stability in buffer ([2]; in the absence of GSH) of the same compound?
A: remains stable

Q: What about the “conversion of the prodrug to the active Allopole-A form” value ([2]; with 5 mM GSH) of the same compound?
A: rapid conversion

Q: And the “Primary screen AVE (% inhib) ± SD” value (5-HT3)?
A: -0.8 ± 4.6 % inhib

Q: What about the “Primary screen AVE (% inhib) ± SD” value (Sigma 2) of the same compound?
A: 40.7 ± 5.8 % inhib

Q: What about the “Primary screen AVE (% inhib) ± SD” value (Aipha1D) of the same compound?
A: -15.1 ± 19.8 % inhib

Q: And the “Primary screen AVE (% inhib) ± SD” value (D5)?
A: 20.9 ± 9.5 % inhib

Q: And the “Primary screen AVE (% inhib) ± SD” value (Alpha2C)?
A: 6.4 ± 7.5 % inhib

Q: What about the “Primary screen AVE (% inhib) ± SD” value (M3) of the same compound?
A: 48.3 ± 21.9 % inhib

Q: What about the “Primary screen AVE (% inhib) ± SD” value (D1) of the same compound?
A: 21.5 ± 6.8 % inhib

Q: What about the “Primary screen AVE (% inhib) ± SD” value (5-HT1A) of the same compound?
A: -12.8 ± 19.7 % inhib

Q: What about the “Primary screen AVE (% inhib) ± SD” value (D3) of the same compound?
A: 12.8 ± 12.8 % inhib

Q: What about the “Primary screen AVE (% inhib) ± SD” value (5-HT2B) of the same compound?
A: -0.5 ± 5.0 % inhib

Q: And the “Primary screen AVE (% inhib) ± SD” value (Alpha2B)?
A: 8.3 ± 16.4 % inhib

Q: And the Ki (PBR)?
A: > 10 µM

Q: And the “Primary screen AVE (% inhib) ± SD” value (PBR; 10 mM sample)?
A: -2.1 ± 5.3 % inhib

Q: What about the “Primary screen AVE (% inhib) ± SD” value (M2) of the same compound?
A: 9.3 ± 19.3 % inhib

Q: What about the “Primary screen AVE (% inhib) ± SD” value (H1) of the same compound?
A: 35.8 ± 11.9 % inhib

Q: What about the “Primary screen AVE (% inhib) ± SD” value (NET) of the same compound?
A: -56.8 ± 10.5 % inhib

Q: What about the “Primary screen AVE (% inhib) ± SD” value (D2) of the same compound?
A: 3.6 ± 6.6 % inhib

Q: And the “Primary screen AVE (% inhib) ± SD” value (5-HT1E)?
A: 22.2 ± 10.5 % inhib

Q: What about the “Primary screen AVE (% inhib) ± SD” value (H2) of the same compound?
A: -16.4 ± 21.5 % inhib

Q: And the “Primary screen AVE (% inhib) ± SD” value (5-HT6)?
A: 21.9 ± 15.6 % inhib

Q: What about the “Primary screen AVE (% inhib) ± SD” value (D4) of the same compound?
A: 12.6 ± 4.9 % inhib

Q: What about the “Primary screen AVE (% inhib) ± SD” value (SERT) of the same compound?
A: -56.0 ± 13.9 % inhib

Q: And the “Primary screen AVE (% inhib) ± SD” value (MOR)?
A: 40.6 ± 51.0 % inhib

Q: What about the “Primary screen AVE (% inhib) ± SD” value (Sigma 1) of the same compound?
A: 41.8 ± 11.9 % inhib

Q: What about the “Primary screen AVE (% inhib) ± SD” value (H4) of the same compound?
A: 8.2 ± 3.1 % inhib

Q: And the “Primary screen AVE (% inhib) ± SD” value (Alpha1A)?
A: 40.6 ± 10.5 % inhib

Q: And the “Primary screen AVE (% inhib) ± SD” value (Beta2)?
A: 0.1 ± 10.6 % inhib

Q: What about the Ki (BZP Rat brain site) of the same compound?
A: > 10 µM

Q: And the “Primary screen AVE (% inhib) ± SD” value (BZP Rat brain site; 10 mM sample)?
A: 9.5 ± 7.6 % inhib
